From patent publication US20100092402A1, “TREATMENT OF RESPIRATORY DISEASE” (Mucokinetica Ltd., priority 2007, published 2010)
Read-outs that look alike come from different tables or passages of the source.

What was measured:
[1] = molecular target: T1, epithelial amiloride-sensitive sodium channel (ENaC) (Homo sapiens, UniProt P37088+P51168+P51170); assay type: cell-based; settings: 1 μM or 100 μM, 90 min
T1 sequence (P37088 1-669): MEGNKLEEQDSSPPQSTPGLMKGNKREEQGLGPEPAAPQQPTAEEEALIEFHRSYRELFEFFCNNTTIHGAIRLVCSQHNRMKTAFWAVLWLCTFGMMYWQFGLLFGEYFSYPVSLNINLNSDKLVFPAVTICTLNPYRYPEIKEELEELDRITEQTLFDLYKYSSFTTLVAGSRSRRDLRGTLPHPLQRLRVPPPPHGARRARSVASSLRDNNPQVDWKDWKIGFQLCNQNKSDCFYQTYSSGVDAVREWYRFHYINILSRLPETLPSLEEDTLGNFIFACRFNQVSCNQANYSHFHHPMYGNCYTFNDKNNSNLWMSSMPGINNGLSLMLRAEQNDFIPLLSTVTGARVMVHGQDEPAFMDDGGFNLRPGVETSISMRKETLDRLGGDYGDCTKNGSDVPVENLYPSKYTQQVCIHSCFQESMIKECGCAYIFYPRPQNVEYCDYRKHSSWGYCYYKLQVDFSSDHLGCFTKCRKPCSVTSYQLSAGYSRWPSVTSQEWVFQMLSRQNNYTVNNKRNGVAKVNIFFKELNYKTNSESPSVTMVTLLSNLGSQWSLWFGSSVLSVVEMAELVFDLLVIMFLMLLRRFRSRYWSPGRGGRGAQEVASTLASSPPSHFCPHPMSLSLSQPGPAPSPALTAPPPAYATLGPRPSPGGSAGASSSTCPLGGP
T1 sequence (P51168 1-640): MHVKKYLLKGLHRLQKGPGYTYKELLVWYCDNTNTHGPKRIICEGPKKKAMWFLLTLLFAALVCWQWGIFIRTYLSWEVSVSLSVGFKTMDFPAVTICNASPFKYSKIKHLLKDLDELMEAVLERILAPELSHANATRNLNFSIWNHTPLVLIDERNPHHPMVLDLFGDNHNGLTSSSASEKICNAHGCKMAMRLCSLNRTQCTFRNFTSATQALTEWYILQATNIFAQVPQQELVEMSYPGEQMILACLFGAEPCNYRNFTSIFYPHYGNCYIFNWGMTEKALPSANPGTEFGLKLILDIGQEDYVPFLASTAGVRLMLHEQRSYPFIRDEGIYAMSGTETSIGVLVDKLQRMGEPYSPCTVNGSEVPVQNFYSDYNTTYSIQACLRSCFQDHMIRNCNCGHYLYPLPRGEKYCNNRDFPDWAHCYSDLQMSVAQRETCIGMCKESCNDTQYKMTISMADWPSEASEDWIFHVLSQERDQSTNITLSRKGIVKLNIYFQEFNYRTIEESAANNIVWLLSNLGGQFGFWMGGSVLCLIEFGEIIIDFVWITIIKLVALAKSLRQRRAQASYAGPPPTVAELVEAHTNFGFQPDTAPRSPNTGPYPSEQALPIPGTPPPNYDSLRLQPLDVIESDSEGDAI
T1 sequence (P51170 1-649): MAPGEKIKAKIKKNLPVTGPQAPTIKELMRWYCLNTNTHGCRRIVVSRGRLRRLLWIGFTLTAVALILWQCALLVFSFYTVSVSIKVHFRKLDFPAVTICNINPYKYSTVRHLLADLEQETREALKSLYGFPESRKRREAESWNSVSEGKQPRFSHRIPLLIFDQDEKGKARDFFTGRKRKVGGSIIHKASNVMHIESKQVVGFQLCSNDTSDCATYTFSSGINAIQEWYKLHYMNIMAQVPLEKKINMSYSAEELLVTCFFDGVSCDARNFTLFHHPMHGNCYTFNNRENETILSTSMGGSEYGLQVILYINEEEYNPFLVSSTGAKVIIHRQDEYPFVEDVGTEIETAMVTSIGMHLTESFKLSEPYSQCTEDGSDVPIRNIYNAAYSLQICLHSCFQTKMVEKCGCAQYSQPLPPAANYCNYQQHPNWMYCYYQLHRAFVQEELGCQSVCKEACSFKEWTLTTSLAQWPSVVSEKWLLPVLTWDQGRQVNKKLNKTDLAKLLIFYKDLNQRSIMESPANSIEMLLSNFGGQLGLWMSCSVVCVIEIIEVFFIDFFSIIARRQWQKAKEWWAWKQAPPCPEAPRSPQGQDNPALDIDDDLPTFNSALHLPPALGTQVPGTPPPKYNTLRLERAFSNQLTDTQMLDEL
Protocol: (§1) Human bronchial epithelial (HBE) cells were purchased from Cambrex Bioscience Ltd, UK., and were stored frozen in liquid nitrogen until required for use.
(§2) HBE cells were amplified by growing in secondary culture according to the suppliers' instructions. Cells were seeded at densities of between 3,000 to 4,000/cm^2 in plastic T-25 culture flasks in bronchial epithelial cell growth medium (BEGM) prepared from bronchial epithelial basal medium (BEBM, Cambrex, UK) supplemented with bovine pituitary extract, hydrocortisone, human epidermal growth factor, epinephrine, transferrin, insulin, retinoic acid, triiodothyronine, gentamicin, and amphotericin B. Cultures were maintained at 37° C. in 5% CO2 in a humidified incubator. Medium was changed every 1 to 3 days until cells were approximately 90% confluent. Cells were then passaged with trypsin EDTA according to the suppliers' instructions, and either used for further cell cultures, or cryopreserved in liquid nitrogen in BEGM containing 10% foetal bovine serum and 10% DMSO.
(§3) HBE cells were prepared for electrophysiology studies by growing as tertiary cultures on Snapwell (Corning) 0.4μ clear polyester membrane inserts 1.2 cm^2 coated with collagen IV (Sigma). Cells were seeded at approximately 10^5/cm^2 in 0.5 ml 1:1 DMEM (Cambrex, UK) BEGM containing bovine pituitary extract (50 μg/ml), hydrocortisone (0.5 μg/ml), human epidermal growth factor (0.5 ng/ml), epinephrine (0.5 μg/ml), transferrin (10 μg/ml), insulin (5 μg/ml), retinoic acid (50 nM), and gentamicin (50 μg/ml) (Danahay medium; Danahay et al. 2002). Snapwell inserts were mounted in 6-well plates with 3 ml Danahay medium in the wells, and grown at 37° C. in 5% CO2 in a humidified incubator. Medium was changed every 1 to 3 days. An apical air-liquid interface (ALI) was established as the cells achieved confluence (3 to 6 days) by removal of medium from the centre of the insert. Confluent differentiated bronchial epithelial cells were used for electrophysiology studies at between 15 and 29 days after establishing ALI.
(§4) Differentiated HBE cells grown to confluence at an air-liquid interface for 15 to 29 days were used to study substances for ability to achieve long duration down regulation of the epithelial amiloride-sensitive sodium channel (ENaC).
(§5) Step 1: Treatment with substance. For each group of cells treated with a substance, 30 μl of 100 times final concentration of substance was added to the 3 ml basolateral culture medium, mixed and 150 μl of the resultant basolateral fluid was transferred to the apical surface for 5 min. For non-treatment control groups of basolateral fluid with no added substance was transferred to the apical surface. After 5 min. equilibration the excess apical fluid was then transferred back to the basolateral side of the culture well.
(§6) Step 2: Variable period of incubation with the substance. Dependent on the individual experiment the cells were returned to the 37° C. incubator for periods of 0 min. to 120 min.
(§7) Step 3: Period of substance washout with fresh culture medium. For experiments to study the duration of a substance response the HBE cells on Snapwell inserts were washed with fresh culture medium (no added substance) at 37° C. and placed in fresh 6-well plates containing 3 ml fresh culture medium (no added substance) on the basolateral side. […] Step 3 was omitted in studies where the duration of the substance response was not investigated.
(§8) Step 4: Wash with Krebs-Ringer buffer and assembly in Ussing chambers. The Snapwell insert cultures of HBE cells were removed from the 6-well plates and washed with excess Krebs-Ringer buffer (120 mM-NaCl, 25 mM-NaHCO3, 3.3 mM-KH2PO4, 0.8 mM-K2HPO4, 1.2 mM-CaCl2, 1.2 mM-MgCl2, 10 mM-glucose) pH7.4 at 37° C. The inserts were then mounted in Ussing chambers (Snapwell diffusion chambers, Costar UK Ltd.). Each side of the chamber was filled with 5 ml Krebs-Ringer buffer and gassed continuously with 95% O2/5% CO2 at 37° C. […]

[2] = system: cortical collecting duct of the rabbit kidney; settings: perfused; Muto et al. 1994; cited from earlier work
nasal epithelium = test: Mucus host-defence responses during nasal perfusion; assay type: in vivo, human; settings: perfusion with 10^−5 M in low chloride Ringer/HEPES buffer
Excerpt: Perfusion of the nasal epithelium with low chloride Ringer/HEPES buffer imposes a chemical gradient for chloride secretion, and therefore also provides a drive for fluid secretion.
Mucus host-defence episodes were scored 1 to 3 on the basis of the number of features and the magnitude of the responses observed. FIG. 10 reports the score of the episodes recorded, and indicates the time of their occurrence in the perfusion protocol.

[3] = molecular target: T2, epithelial amiloride-sensitive sodium channel (ENaC) (Homo sapiens, UniProt P37088+P51168+P51170); assay type: cell-based
T2 construct: Differentiated HBE cells grown to confluence at an air-liquid interface for 15 to 29 days were used; host or cells: primary human bronchial epithelial (HBE) cells, differentiated at air-liquid interface
Protocol: as §1, §2, §3, §4, §5, §6, §7, §8

[4] = system: amiloride-sensitive (sodium-dependent) component of nasal PD; test: Nasal PD measurement during perfusion of human nasal epithelium; assay type: in vivo; settings: perfusion with 10^−5 M-amiloride
Protocol: The method of measurement of nasal PD was an adaptation of that described by Standaert et al. (2004).
Ringer/HEPES buffer solution was prepared containing 148 mM-NaCl, 4.05 mM-KCl, 1.2 mM-CaCl2, 1.2 mM-MgCl2, 2.4 mM-K2HPO4, 0.4 mM-KH2PO4, 10 mM-HEPES, and adjusted to pH 7.4. Low chloride Ringer/HEPES buffer solution was prepared by replacing NaCl with 148 mM-Na gluconate in the Ringer solution components.
Agar electrodes were prepared with 3.7% agarose dissolved in Ringer/HEPES buffer pH 7.4. The reference electrode was placed and taped in contact with a small area on the forearm where the epidermis had been removed by gentle abrasion. A dual lumen nasal recording electrode was prepared using a lm length of soft plastic tubing 2.4 mm diameter, into which 1 mm diameter polythene tubing was inserted through the wall and along the lumen for 15 cm from one end. The 2.4 mm diameter tubing was filled with 3.7% agarose dissolved in Ringer/HEPES buffer pH 7.4. The 1 mm diameter tubing was used for perfusion of buffer solutions and drugs to the nasal epithelium. The ends of the agar electrodes were each placed in contact with a calomel half-cell in 3 M-KCl solution. Voltages were measured by connecting the calomel electrodes to a high impedance voltmeter (Keithley 617 programmable electrometer). Output from the voltmeter was recorded by connection to a Biopac MP100 data aquisition unit and PC running Acqknowledge III data acquisition software.
Nasal PD was recorded via the recording electrode placed in contact with the nasal epithelium approximately 4 cm inside the nostril. The nasal epithelium was perfused according to the following schedule and nasal PD was recorded continuously.
1. Ringer/HEPES buffer was perfused at 0.5 ml/min for 5 min, and starting baseline PD was recorded.
2. Perfusion was then switched to low chloride Ringer/HEPES buffer pH 7.4 for 30 min during which time initial hyperpolarisation of the epithelium occurred.
3. The nasal epithelium was then perfused with 10^−5 M-amiloride in low chloride Ringer/HEPES buffer pH 7.4 for 10 min. Measurement of the amiloride-sensitive (sodium-dependent) component of nasal PD was then made by measuring the difference between the average PD recorded over the 2 min before perfusion with amiloride and the average PD recorded in the period 4 to 6 min after perfusion with amiloride.
4. Amiloride was washed away from the nasal epithelium by perfusion with low chloride Ringer/HEPES buffer pH 7.4 for 30 min.
5. Steps 3 and 4 were then repeated twice more.
6. The nasal epithelium was then perfused with 3 μM 6-amidino-2-napthyl 4-guanidinobenzoate in low chloride Ringer/HEPES buffer pH 7.4 for 60 min.
7. Steps 3 and 4 were then repeated a further twice, followed by either a period of administration of amiloride (3 experiments), or a final repetition of both steps 3 and 4 (1 experiment).
Over the 5 h time course of each experiment nasal PD drifted and oscillated. […] Changes in nasal PD caused by perfusion of amiloride were calculated as the difference between the mean PD recorded in the 2 min period before perfusion with amiloride and the mean PD recorded in the plateau period 4 to 6 min after start of perfusion with amiloride. Within each experiment the change in nasal PD at each period of application of amiloride was expressed as a percentage of the maximum change observed in the experiment.

ENaC = molecular target: T3, ENaC (Homo sapiens, UniProt P37088+P51168+P51170); settings: same range as 50% to 70% of amiloride inhibition; Bridges et al. 2001; cited from earlier work
T3 construct: Treatment of airway epithelial cells with BAY 39-9437 results in reduction of ENaC activity; host or cells: airway epithelial cells (Bridges et al 2001)
T3 sequence (P37088 1-669): T1 sequence (P37088 1-669)
T3 sequence (P51168 1-640): T1 sequence (P51168 1-640)
T3 sequence (P51170 1-649): T1 sequence (P51170 1-649)

Compound: N=C(N)c1ccc2cc(O)ccc2c1 [AN, 6-amidino-2-naphthol]
- amiloride ΔIsc compared to control ([1]; HBE 34 & 35 d, 28 & 29 d ALI (FIG. 8B)): not significantly different
- minimum effective concentration [2]: 10^−4 M

Compound: N=C(N)NC(=O)c1nc(Cl)c(N)nc1N [amiloride]
- mucus host-defence responses (nasal epithelium): stimulated episodes of mucus host-defence responses
- ΔIsc (amiloride addition) ([3]; 10 μM amiloride apical, HBE cells 24 d in culture, 21 d ALI, FIG. 1): 9.2 μAmp
- time for short circuit current to fall to new plateau after application of amiloride ([3]; 10 μM-amiloride, apical surface): ≤ 2 min
- time at which partial depolarisation of nasal epithelium was observable [4]: ≤ 2 min

Compound: N=C(N)Nc1ccc(C(=O)O)cc1 [pGBA, p-guanidinobenzoic acid]
- amiloride ΔIsc compared to control ([1]; HBE 22 d, 17 d ALI (FIG. 8A)): not significantly different
- minimum effective concentration [2]: 10^−5 M

Compound: aprotinin
- efficacy compared with high dose amiloride (ENaC): same range
